Data set [1] can be described thus: Aqueous solubility. The class given is physicochemical. To be noted: read-out: Aqueous Solubility.
The target in data set [2] is T1, CK2A1 (Homo sapiens, UniProt P68400).
T1 construct: purchased Eurofins
Kind of data set: Radiometric kinase assay (Eurofins), CK2A1. To be noted: read-out: CK2A1 RAD IC50. Type of data set: biochemical. The source says: FIGS. 4A-4F characterize flavones for in vitro and in-cell CK2 inhibition. […] Representative of two independent experiments. […] Nonlinear fit was used to calculate IC50. […] Nonlinear fit was used to calculate IC50. […] Nonlinear fit was used to calculate IC50. […] Normalized to DMSO, data are representative of three independent experiments.
(§1) • ^1Radiometric kinase assay from Eurofins. Performed in astrocytes with a Promega Lumit IL-6 kit.

Data set [3] relates to IL-6 secretion. Kind of data set: IL-6 secretion assay in astrocytes (Promega Lumit IL-6 kit). The following applies: Homo sapiens, Astrocyte, read-out: IL6-Inhib. The class given is cell-based, human. The procedure:
IL-6 secretion assay. HCAs were plated at 20,000 cells per well in white clear bottom 96-well plates. Two to three days later, media was removed and replaced with media containing 10 ng/mL IL1B and compound dilution series. Five hours later, plates were processed using the Lumit IL-6 Assay Kit (Promega W6030) according to the manufacturer's instructions.
• ^1Radiometric kinase assay from Eurofins. Performed in astrocytes with a Promega Lumit IL-6 kit. A series of halogenated flavones was generated and assayed (Table 3).

Data set [4] concerns the target T2, CK2A2 (Homo sapiens, UniProt P19784).
T2 construct: purchased Eurofins
Kind of data set: Radiometric kinase assay (Eurofins), CK2A2. The class given is biochemical. The following applies: read-out: CK2A2 RAD IC50.
From the text: as §1

Data set [5] has as its system NF-κB. The data set can be described thus: NF-κB-Luciferase reporter assay in THP-1 NF-κB-Lucia cells. Type of data set: cell-based, human. The procedure:
NF-κB-Luciferase reporter assay. THP-1 NF-κB-Lucia cells were plated at 10,000 cells per well with 10 ng/mL PMA. Three days later, media was removed and replaced with media containing LPS (1 μg/mL) and dilution series of compounds in flat bottom clear 96-well plates for 24 hours. A day later, 20 μL of media was transferred to a 96-well white plate and 50 μL of QuantiLuc Gold reagent (InvivoGen rep-qlcg5) was added per well; plate was mixed in the plate reader and luminescence was read using a Promega GloMax Reader.

Data set [6] has as its system IL-6, IL-8, TNF-α, and MCP-1. Kind of data set: Flow cytometry assay of cytokine production in HCA. Type of data set: cell-based, human. To be noted: 20 μM compound, 10 ng/mL IL1-β. The procedure:
Flow cytometry. For each well of HCA in a 6-well plate, 2 mL of fresh media with GolgiPLUG (BD #555029, 1:1000) and GolgiSTOP (BD #554724, 1:1000) with 20 μM compound or vehicle (DMSO) and IL1b 10 ng/mL or DPBS was added. The cells were incubated for 5 h at 37° C. Cells were collected with TrypLE and plated into a 96-well V-bottom plate for staining. The plate was centrifuged for 5 min, 1300 rpm, 4° C. to pellet cells, which were subsequently resuspended in 100 μL DPBS with 1 μL Zombie Violet (Biolegend #4231 13) and 5 μL Human Trustain FC block (Biolegend #422302) per well for 15 min at room temperature in the dark. The plate was centrifuged, supernatant was aspirated, and the cells were washed with 100 μL/well DPBS. Cells were fixed with 100 μL/well of Cytofix/Cytoperm (BD) for 20 min at 4° C. The plate was centrifuged, supernatant was aspirated, and cells were resuspended in 100 μL Permwash (BD) and incubated for 15 min at 4° C. The plate was centrifuged, supernatant was aspirated, and cells were incubated with 100 μL/well of Ab mix or isotype mix in Permwash (see below) for 20 min at 4° C., followed by centrifugation and 2× PermWash washes. The cells were resuspended in 100 μL DPBS and transferred to FACS tubes containing 200 ul of PBS (total volume per tube 300 μL) for analysis on FACS Analyzers (LSRII or Fortessa).
A flow cytometry-based assay was used to assess the anti-inflammatory activity of several natural flavonoid compounds (FIG. 1A) and build corresponding structure-activity relationships. Primary human cerebellar astrocytes (HCA) were co-treated with 20 μM of each compound or vehicle (DMSO), 10 ng/mL IL1-β, and a protein transport inhibitor for 6 hours, and then processed for intracellular staining of pro-inflammatory cytokines IL-6, IL-8, TNF-α, and MCP-1. The presence of a C2-C3 double bond was the predominant determining factor for anti-inflammatory activity. […] There was no cytotoxicity associated with flavone treatment (FIG. 1E).

Where [7] appears, read: aqueous medium (not further specified), Table 8.

Converted amounts (≈) assume the structure as drawn. Like-named read-outs stand apart in the source and are kept apart here. Where only a bound is given, the exact number is not on record here.

T2 sequence (P19784 whole entry): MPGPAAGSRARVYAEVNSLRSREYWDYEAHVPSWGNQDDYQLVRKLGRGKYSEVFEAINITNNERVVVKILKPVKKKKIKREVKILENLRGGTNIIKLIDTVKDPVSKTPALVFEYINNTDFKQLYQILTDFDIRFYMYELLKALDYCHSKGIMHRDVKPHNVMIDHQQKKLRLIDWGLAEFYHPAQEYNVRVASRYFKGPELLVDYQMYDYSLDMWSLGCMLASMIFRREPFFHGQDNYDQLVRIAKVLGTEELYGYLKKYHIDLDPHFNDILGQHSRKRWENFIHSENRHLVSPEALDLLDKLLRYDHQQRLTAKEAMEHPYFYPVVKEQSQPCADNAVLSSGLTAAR
T1 sequence (P68400 whole entry): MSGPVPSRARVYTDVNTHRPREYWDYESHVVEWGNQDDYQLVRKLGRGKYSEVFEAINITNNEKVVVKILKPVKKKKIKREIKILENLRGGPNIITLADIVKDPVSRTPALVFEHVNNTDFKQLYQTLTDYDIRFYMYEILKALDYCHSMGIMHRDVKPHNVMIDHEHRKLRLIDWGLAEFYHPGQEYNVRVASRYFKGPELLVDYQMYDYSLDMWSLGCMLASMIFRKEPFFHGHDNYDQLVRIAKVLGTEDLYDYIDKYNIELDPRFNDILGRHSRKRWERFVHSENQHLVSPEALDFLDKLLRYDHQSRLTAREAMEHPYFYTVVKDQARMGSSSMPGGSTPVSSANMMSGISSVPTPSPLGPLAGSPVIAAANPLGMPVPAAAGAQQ

In the case of `COc1cc(/C=C2\Oc3c(ccc(OC)c3Br)C2=O)ccc1O` [JKT.820A], the solubility in data set [1] (Table 11) is below 0.01 µM. Moreover, the IC50 is 7 nM in data set [2] (Table 11, aurones); above 10000 nM in data set [3] (Table 11); 6 nM in data set [4] (Table 11, aurones).
Taken in the same sequence, the figures for `COc1ccc2c(c1Br)O/C(=C\c1ccc(C(=O)O)cc1)C2=O` [JKT.821A] were 196 µM (≈ 73.4 µg/mL), 1540 nM, above 10000 nM and 206 nM.
With `O=C1/C(=C/c2cc(Cl)c(O)c(Cl)c2)Oc2c(Br)cc(Br)cc21` [JKT.822A], in data set [1] (Table 11), the solubility was below 0.01 µM. In addition, the IC50 was determined as 2010 nM in data set [2] (Table 11, aurones); 2000 nM in data set [3] (Table 11); 804 nM in data set [4] (Table 11, aurones).
Taken in the same sequence, the figures for `COc1c(Br)cc2c(c1Br)O/C(=C\c1cc(Cl)c(O)c(Cl)c1)C2=O` [JKT.823A] were 167 µM (≈ 82.5 µg/mL), above 5000 nM, 5500 nM and 1220 nM.
The corresponding values for `COc1ccc2c(c1Br)O/C(=C\c1cc(Cl)c(O)c(Cl)c1)C2=O` [JKT.824A] are above 200 µM, 447 nM, 10100 nM and 140 nM.
Consider `O=c1[nH]c(-c2ccc(O)c(Br)c2)nc2c(Br)cccc12` [JKT.827A], for which the solubility in data set [1] (setting [7]) was 22.4 µM (≈ 8.87 µg/mL). The IC50 in data set [2] (Table 8, quinazolinones) was 281 nM; in data set [3] (Table 8), above 10000 nM; in data set [4] (Table 8, quinazolinones) it was 860 nM.
The corresponding values for `O=c1[nH]c(-c2ccc(O)c(Cl)c2)nc2c(Br)cccc12` [JKT.828A] are 58.9 µM (≈ 20.7 µg/mL), 652 nM, above 10000 nM and 1410 nM.
The corresponding values for `O=c1[nH]c(-c2cc(Cl)c(O)c(Cl)c2)nc2c(Br)cccc12` [JKT.829A] are 193 µM (≈ 74.6 µg/mL), 736 nM, above 10000 nM and 659 nM.
With `O=c1[nH]c(-c2cc(F)c(O)c(F)c2)nc2c(Br)cccc12` [JKT.830A], the solubility in data set [1] (setting [7]) turned out to be 171 µM (≈ 60.4 µg/mL). The IC50 in data set [2] (Table 8, quinazolinones) is 866 nM; in data set [3] (Table 8), above 10000 nM; in data set [4] (Table 8, quinazolinones), 1210 nM.
For `O=c1[nH]c(-c2ccc(O)c(C(F)(F)F)c2)nc2c(Br)cccc12` [JKT.831A], the solubility in data set [1] (setting [7]) was 139 µM (≈ 53.5 µg/mL). The IC50 in data set [2] (Table 8, quinazolinones) was above 5000 nM; in data set [3] (Table 8), above 10000 nM; in data set [4] (Table 8, quinazolinones) it was above 5000 nM.
Regarding `COc1cc(-c2nc3c(Br)cccc3c(=O)[nH]2)ccc1O` [JKT.832A], in data set [1] (setting [7]), the solubility was found to be 61 µM (≈ 21.2 µg/mL). For the same compound, the IC50 in data set [2] (Table 8, quinazolinones) is 3940 nM; in data set [3] (Table 8) it was 10500 nM; in data set [4] (Table 8, quinazolinones) it was above 5000 nM.
Take `COc1nc(-c2ccc(O)c(Br)c2)nc2c(Br)cc(Br)cc12` [JKT.842A]: the solubility in data set [1] (setting [7]) was below 0.01 µM. For the same compound, the IC50 in data set [2] (Table 8, quinazolinones) is 1010 nM; in data set [3] (Table 8) it was above 10000 nM; in data set [4] (Table 8, quinazolinones), 1130 nM.
Consider `O=c1cc(-c2ccc(O)c(Br)n2)oc2c(Br)cc(Br)cc12` [JKT.844A], for which, in data set [1] (Table 4), the solubility was 148 µM (≈ 70.2 µg/mL). Besides, the IC50 stood at 265 nM in data set [2] (Table 4), 8000 nM in data set [3] (Table 4) and 201 nM in data set [4] (Table 4).
As to `O=c1cc(-c2ccccc2)oc2cc(O)cc(O)c12` [chrysin], in data set [5] (FIG. 4D), the “Activity in THP-1-NF-κB-Lucia monocytes” value is “No activity”.
As for `O=c1c(O)c(-c2ccc(O)c(O)c2)oc2cc(O)ccc12` [fisetin], the “IL1-β-induced IL-6, IL-8, TNF-α, MCP-1 cytokine upregulation” value in data set [6] was “strong suppressive activity”. In addition, in data set [5] (Homo sapiens, THP-1, FIG. 5B, read-out: IC50 in THP-1 monocyte NF-κB-Luciferase reporter cells), the IC50 was below 4000 nM. Also, in data set [5] (at 20 μM, FIG. 5A, some values sourced from Baier et al. (2017) and Lolli et al. (2012)), the “SAR summary: activity in NF-κB reporter assay and for CK2 kinase inhibition” value is given as “active”.

The values are drawn from patent US20260199350A1, “FLAVONES, QUINOLINONES, QUINAZOLINONES, AND AURONES, AND USES IN CK2-MEDIATED DISEASES” (Salk Institute for Biological Studies, priority 2022, published 2026).
